Results from ChEMBL document CHEMBL3885881, “DrugMatrix”.

Species: Rattus norvegicus
Assay: DrugMatrix - Regimen: Daily Repeat
Assay type: toxicity, organism-based, Sprague-Dawley
Set-up: regimen Daily Repeat, gender Male, age 6-8 weeks
Settings: in vivo, po, route oral GAVAGE, vehicle 100 % WATER; for ABSOLUTE BASOPHIL / ABSOLUTE EOSINOPHIL / ABSOLUTE LYMPHOCYTE / ABSOLUTE MONOCYTE / ABSOLUTE SEGMENTED NEUTROPHIL / BASOPHIL / EOSINOPHIL / ERYTHROCYTE COUNT / HEMATOCRIT / HEMOGLOBIN / LEUKOCYTE COUNT / LYMPHOCYTE / MEAN CORPUSCULAR HEMOGLOBIN / MEAN CORPUSCULAR HEMOGLOBIN CONCENTRATION / MONOCYTE / NEUTROPHIL / NUCLEATED RED BLOOD CELLS / PLATELET COUNT: tissue Blood; for ALANINE AMINOTRANSFERASE / ALBUMIN / ALKALINE PHOSPHATASE / BLOOD UREA NITROGEN / CARBON DIOXIDE / CHLORIDE / CHOLESTEROL / CREATINE PHOSPHOKINASE / CREATININE / GLUCOSE / LACTATE DEHYDROGENASE / LIPASE / PHOSPHORUS / POTASSIUM / SODIUM / TOTAL BILIRUBIN / TOTAL PROTEIN / URIC ACID: tissue Plasma
[1] = 15 mg/kg, 120 h, dose level Low, time 5 day
[2] = 150 mg/kg, 72 h, dose level High, time 3 day
[3] = 150 mg/kg, 120 h, dose level High, time 5 day

SMILES: Cc1ccc(NC(=O)c2ccc(CN3CCN(C)CC3)cc2)cc1Nc1nccc(-c2cccnc2)n1 [IMATINIB]
- ABSOLUTE BASOPHIL [1]: 0 CELLS/uL
- ABSOLUTE EOSINOPHIL [1]: 72.33 CELLS/uL
- ABSOLUTE LYMPHOCYTE [1]: 6282 CELLS/uL
- ABSOLUTE MONOCYTE [1]: 25.33 CELLS/uL
- ABSOLUTE SEGMENTED NEUTROPHIL [1]: 653.67 CELLS/uL
- BASOPHIL [1]: 0%
- EOSINOPHIL [1]: 1%
- ERYTHROCYTE COUNT [1]: 5.21 x10E6/uL
- HEMATOCRIT [1]: 33.07%
- HEMOGLOBIN [1]: 12.73 G/DL
- LEUKOCYTE COUNT [1]: 7.03 x10E3/uL
- LYMPHOCYTE [1]: 89.67%
- MEAN CORPUSCULAR HEMOGLOBIN [1]: 24.43 pg
- MEAN CORPUSCULAR HEMOGLOBIN CONCENTRATION [1]: 38.53 G/DL
- MONOCYTE [1]: 0.33%
- NEUTROPHIL [1]: 9%
- NUCLEATED RED BLOOD CELLS [1]: 0 /100WBC
- PLATELET COUNT [1]: 1004.67 x10E3/uL
- ALANINE AMINOTRANSFERASE [1]: 55.67 u/L
- ALBUMIN [1]: 4.2 G/DL
- ALKALINE PHOSPHATASE [1]: 357.67 u/L
- BLOOD UREA NITROGEN [1]: 14.67 mg/dL
- CARBON DIOXIDE [1]: 28 mmol/L
- CHLORIDE [1]: 100.33 MEQ/L
- CHOLESTEROL [1]: 60 mg/dL
- CREATINE PHOSPHOKINASE [1]: 404.33 u/L
- CREATININE [1]: 0.17 mg/dL
- GLUCOSE [1]: 140.33 mg/dL
- LACTATE DEHYDROGENASE [1]: 183.67 u/L
- LIPASE [1]: 8 u/L
- PHOSPHORUS [1]: 11.1 mg/dL
- POTASSIUM [1]: 5.69 MEQ/L
- SODIUM [1]: 145.7 MEQ/L
- TOTAL BILIRUBIN [1]: 0.3 mg/dL
- TOTAL PROTEIN [1]: 6 G/DL
- URIC ACID [1]: 0.73 mg/dL
- ABSOLUTE BASOPHIL [2]: 0 CELLS/uL
- ABSOLUTE EOSINOPHIL [2]: 64 CELLS/uL
- ABSOLUTE LYMPHOCYTE [2]: 9025.33 CELLS/uL
- ABSOLUTE MONOCYTE [2]: 0 CELLS/uL
- ABSOLUTE SEGMENTED NEUTROPHIL [2]: 844 CELLS/uL
- BASOPHIL [2]: 0%
- EOSINOPHIL [2]: 0.67%
- ERYTHROCYTE COUNT [2]: 5.45 x10E6/uL
- HEMATOCRIT [2]: 34.93%
- HEMOGLOBIN [2]: 13 G/DL
- LEUKOCYTE COUNT [2]: 9.93 x10E3/uL
- LYMPHOCYTE [2]: 90.33%
- MEAN CORPUSCULAR HEMOGLOBIN [2]: 23.83 pg
- MEAN CORPUSCULAR HEMOGLOBIN CONCENTRATION [2]: 37.2 G/DL
- MONOCYTE [2]: 0%
- NEUTROPHIL [2]: 9%
- NUCLEATED RED BLOOD CELLS [2]: 0 /100WBC
- PLATELET COUNT [2]: 1243.33 x10E3/uL
- ALANINE AMINOTRANSFERASE [2]: 86 u/L
- ALBUMIN [2]: 4.3 G/DL
- ALKALINE PHOSPHATASE [2]: 449.67 u/L
- BLOOD UREA NITROGEN [2]: 14.67 mg/dL
- CARBON DIOXIDE [2]: 26.33 mmol/L
- CHLORIDE [2]: 105.33 MEQ/L
- CHOLESTEROL [2]: 61.33 mg/dL
- CREATINE PHOSPHOKINASE [2]: 205.67 u/L
- CREATININE [2]: 0.17 mg/dL
- GLUCOSE [2]: 154 mg/dL
- LACTATE DEHYDROGENASE [2]: 135.33 u/L
- LIPASE [2]: 9 u/L
- PHOSPHORUS [2]: 11 mg/dL
- POTASSIUM [2]: 5.83 MEQ/L
- SODIUM [2]: 145.03 MEQ/L
- TOTAL BILIRUBIN [2]: 0.23 mg/dL
- TOTAL PROTEIN [2]: 5.97 G/DL
- URIC ACID [2]: 1.3 mg/dL
- ABSOLUTE BASOPHIL [3]: 0 CELLS/uL
- ABSOLUTE EOSINOPHIL [3]: 37 CELLS/uL
- ABSOLUTE LYMPHOCYTE [3]: 11284 CELLS/uL
- ABSOLUTE MONOCYTE [3]: 0 CELLS/uL
- ABSOLUTE SEGMENTED NEUTROPHIL [3]: 1012.33 CELLS/uL
- BASOPHIL [3]: 0%
- EOSINOPHIL [3]: 0.33%
- ERYTHROCYTE COUNT [3]: 5.01 x10E6/uL
- HEMATOCRIT [3]: 32.5%
- HEMOGLOBIN [3]: 12.27 G/DL
- LEUKOCYTE COUNT [3]: 12.33 x10E3/uL
- LYMPHOCYTE [3]: 91.33%
- MEAN CORPUSCULAR HEMOGLOBIN [3]: 24.53 pg
- MEAN CORPUSCULAR HEMOGLOBIN CONCENTRATION [3]: 37.73 G/DL
- MONOCYTE [3]: 0%
- NEUTROPHIL [3]: 8.33%
- NUCLEATED RED BLOOD CELLS [3]: 0 /100WBC
- PLATELET COUNT [3]: 1206.67 x10E3/uL
- ALANINE AMINOTRANSFERASE [3]: 77.33 u/L
- ALBUMIN [3]: 4.37 G/DL
- ALKALINE PHOSPHATASE [3]: 359.33 u/L
- BLOOD UREA NITROGEN [3]: 17.33 mg/dL
- CARBON DIOXIDE [3]: 27.33 mmol/L
- CHLORIDE [3]: 100 MEQ/L
- CHOLESTEROL [3]: 49.67 mg/dL
- CREATINE PHOSPHOKINASE [3]: 251 u/L
- CREATININE [3]: 0.21 mg/dL
- GLUCOSE [3]: 162 mg/dL
- LACTATE DEHYDROGENASE [3]: 163.67 u/L
- LIPASE [3]: 9 u/L
- PHOSPHORUS [3]: 10.77 mg/dL
- POTASSIUM [3]: 5.96 MEQ/L
- SODIUM [3]: 141.83 MEQ/L
- TOTAL BILIRUBIN [3]: 0.2 mg/dL
- TOTAL PROTEIN [3]: 5.9 G/DL
- URIC ACID [3]: 1.47 mg/dL
